By IC50 is commonly meant the point on the concentration scale where inhibition reaches its midpoint. Low values mean greater potency in that assay, high ones weaker potency in that assay. Broadly, the melting point is the temperature of the solid-liquid transition.

Converted amounts (≈) assume the structure as drawn. “And” between values parts separate entries of the source, which are not always exact repeats. Equal values may be shown once.

Experimental findings from PMC6269778, “Efficient Synthesis of 2-Amino-6-Arylbenzothiazoles via Pd(0) Suzuki Cross Coupling Reactions: Potent Urease Enzyme Inhibition and Nitric Oxide Scavenging Activities of the Products” (Molecules, 2013) are described below.

Series [1] in a line: NO scavenging activity (sodium nitroprusside / Griess reagent). The note with it: for Nitric Oxide Percentage Scavenging Activity at 25 µg/mL / Nitric Oxide Percentage Scavenging Activity at 50 µg/mL / Nitric Oxide Percentage Scavenging Activity at 100 µg/mL: mean ± SD of three parallel measurements; for IC50 (nitric oxide scavenging): NO scavenging.
In series [2] the target is urease (Canavalia ensiformis, UniProt P07374). The series is described as follows: biochemical. The class given is biochemical. The note with it: for inhibition at 25 µg/mL: read-out: Percentage inhibition at 25 µg/mL; for inhibition at 50 µg/mL: read-out: Percentage inhibition at 50 µg/mL. As for the experimental part:
The newly synthesized compounds 3a–e were examined for their urease inhibition activities in vitro at 25 and 50 μg/mL concentrations. […] Thus, enzyme stops catalyzing hydrolysis and the activity of the enzyme is inhibited.
The urease inhibitory activity of the synthesized compounds 2, 3a–e, 4 was determined as follows: phosphate buffer (pH 7, 200 µL) containing 1 unit of enzyme was mixed with phosphate buffer (230 µL) and of a particular stock solution (20 µL, thiourea or the test compound). The reaction mixture was incubated at 25 °C for 5 min. After the incubation period urea stock solution (400 µL, 20 mM) was added. Calibration mixture was prepared with no urea solution. All test tubes were further incubated at 40 °C for the action of urease for 10 min. This was followed by the addition of phenol hypochlorite reagent (1150 µL). Tubes were again incubated at 56 °C for 25 min. […] The IC50 values were determined using the EZ-fit kinetic data base.

urease, sequence (P07374 whole entry, looked up): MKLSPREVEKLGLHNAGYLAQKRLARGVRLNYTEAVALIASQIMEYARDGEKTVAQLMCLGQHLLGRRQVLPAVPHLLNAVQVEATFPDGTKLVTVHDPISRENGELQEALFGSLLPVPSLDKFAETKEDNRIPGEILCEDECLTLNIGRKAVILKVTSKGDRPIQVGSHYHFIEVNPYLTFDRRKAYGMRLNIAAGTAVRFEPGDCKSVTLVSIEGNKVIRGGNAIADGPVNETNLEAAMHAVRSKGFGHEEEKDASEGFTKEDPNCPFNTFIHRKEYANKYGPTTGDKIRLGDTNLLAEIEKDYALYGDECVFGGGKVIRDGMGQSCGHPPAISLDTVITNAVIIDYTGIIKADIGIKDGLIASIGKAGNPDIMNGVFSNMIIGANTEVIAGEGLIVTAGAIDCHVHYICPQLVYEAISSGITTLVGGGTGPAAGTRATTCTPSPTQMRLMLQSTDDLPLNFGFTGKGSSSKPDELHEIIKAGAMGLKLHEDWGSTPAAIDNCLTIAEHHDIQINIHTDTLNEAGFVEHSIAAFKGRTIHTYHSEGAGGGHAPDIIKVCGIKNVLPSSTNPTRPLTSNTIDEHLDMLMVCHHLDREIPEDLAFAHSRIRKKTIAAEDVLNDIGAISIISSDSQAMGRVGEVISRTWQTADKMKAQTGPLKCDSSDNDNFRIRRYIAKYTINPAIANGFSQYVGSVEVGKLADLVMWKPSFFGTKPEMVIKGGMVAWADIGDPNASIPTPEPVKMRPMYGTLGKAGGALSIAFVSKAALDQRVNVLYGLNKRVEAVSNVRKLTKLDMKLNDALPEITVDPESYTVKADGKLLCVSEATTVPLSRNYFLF

Regarding `O=C1O[C@H]([C@@H](O)CO)C(O)=C1O` [Ascorbic acid, reference compound], in series [1], the “Nitric Oxide Percentage Scavenging Activity at 25 µg/mL” value came out at 40.5 ± 0.01%, the “Nitric Oxide Percentage Scavenging Activity at 50 µg/mL” value came to 70.50 ± 0.91% and the “Nitric Oxide Percentage Scavenging Activity at 100 µg/mL” value is on record as 99.5 ± 0.91%.

Take `Nc1nc2ccc(Br)cc2s1` [Compound 2, 6-Bromobenzo[d]thiazole-2-amine]: in series [2], inhibition was half-maximal at 124 µM (IC50), the inhibition at 25 µg/mL turned out to be 43 ± 0.0034% and the inhibition at 50 µg/mL amounted to 95 ± 0.005%. In addition, in series [1], the “Nitric Oxide Percentage Scavenging Activity at 25 µg/mL” value stood at 20 ± 0.004%; the “Nitric Oxide Percentage Scavenging Activity at 50 µg/mL” value came out at 48 ± 0.0007%; the “Nitric Oxide Percentage Scavenging Activity at 100 µg/mL” value is 90 ± 0.007% and 90 ± 0.0007%; the “IC50 (nitric oxide scavenging)” value worked out at 57.8 µg/mL (≈ 252 µM).

With `Cc1ccc(-c2ccc3nc(N)sc3c2)cc1` [Compound 3a, 6-p-Tolylbenzo[d]thiazole-2-amine], the melting point lay within 184 to 186 °C. Further, in series [2], half-maximal inhibition (IC50) required 113 µM, the inhibition at 25 µg/mL was determined as 46 ± 0.005% and the inhibition at 50 µg/mL was found to be 90.49 ± 0.002%. In series [1], the “Nitric Oxide Percentage Scavenging Activity at 25 µg/mL” value turned out to be 24 ± 0.003%; the “Nitric Oxide Percentage Scavenging Activity at 50 µg/mL” value is 67 ± 0.009% and 56 ± 0.001%; the “Nitric Oxide Percentage Scavenging Activity at 100 µg/mL” value is on record as 95 ± 0.001%; the “IC50 (nitric oxide scavenging)” value was found to be 38.19 µg/mL (≈ 159 µM).

In turn, `Nc1nc2ccc(-c3ccc(Cl)cc3)cc2s1` [Compound 3b, 6-(4-Chlorophenyl)benzo[d]thiazole-2-amine] showed a melting point of 194 to 196 °C. In addition, in series [2], 117 µM corresponded to half-maximal inhibition (IC50), the inhibition at 25 µg/mL is 39 ± 0.0012% and the inhibition at 50 µg/mL was 88.19 ± 0.007%. Further, in series [1], the “Nitric Oxide Percentage Scavenging Activity at 25 µg/mL” value came out at 17 ± 0.006%, the “Nitric Oxide Percentage Scavenging Activity at 50 µg/mL” value turned out to be 34 ± 0.005%, the “Nitric Oxide Percentage Scavenging Activity at 100 µg/mL” value is given as 66 ± 0.005% and the “IC50 (nitric oxide scavenging)” value was found to be 75 µg/mL (≈ 288 µM).

For `COc1ccc(-c2ccc3nc(N)sc3c2)cc1` [Compound 3c, 6-(4-Methoxyphenyl)benzo[d]thiazole-2-amine], the melting point was 165 to 167 °C. Also, in series [2], the midpoint of inhibition, the IC50, lay at 111 µM; the inhibition at 25 µg/mL was 44 ± 0.005%; the inhibition at 50 µg/mL worked out at 86.24 ± 0.001%. For the same compound, in series [1], the “Nitric Oxide Percentage Scavenging Activity at 25 µg/mL” value was determined as 31 ± 0.022%, the “Nitric Oxide Percentage Scavenging Activity at 50 µg/mL” value is 67 ± 0.002% and the “IC50 (nitric oxide scavenging)” value was found to be 38.19 µg/mL (≈ 149 µM).

For the compound `Nc1nc2ccc(-c3cc(C(F)(F)F)cc(C(F)(F)F)c3)cc2s1` [Compound 3d, 6-(3,5-bis(Triflouromethyl)phenyl)benzo[d]thiazole-2-amine], the melting point lay within 180 to 182 °C. In addition, in series [2], inhibition was half-maximal at 79.7 µM (IC50), the inhibition at 25 µg/mL stood at 43 ± 0.007% and the inhibition at 50 µg/mL came to 88.6 ± 0.002%. Moreover, in series [1], the “Nitric Oxide Percentage Scavenging Activity at 25 µg/mL” value was 10 ± 0.01%, the “Nitric Oxide Percentage Scavenging Activity at 50 µg/mL” value is given as 23 ± 0.009%, the “Nitric Oxide Percentage Scavenging Activity at 100 µg/mL” value was found to be 63 ± 0.009% and the “IC50 (nitric oxide scavenging)” value turned out to be 83.75 µg/mL (≈ 231 µM).

Regarding `Nc1nc2ccc(-c3ccccc3)cc2s1` [Compound 3e, 6-Phenylbenzo[d]thiazole-2-amine], in series [2], the concentration for half-maximal inhibition (IC50) was 116 µM, the inhibition at 25 µg/mL amounted to 48 ± 0.005% and the inhibition at 50 µg/mL was determined as 85 ± 0.002%. Further, in series [1], the “Nitric Oxide Percentage Scavenging Activity at 25 µg/mL” value is on record as 9 ± 0.007%, the “Nitric Oxide Percentage Scavenging Activity at 50 µg/mL” value amounted to 22 ± 0.001%, the “Nitric Oxide Percentage Scavenging Activity at 100 µg/mL” value was found to be 52 ± 0.001% and the “IC50 (nitric oxide scavenging)” value stood at 96.66 µg/mL (≈ 427 µM).

Take `CC(=O)Nc1nc2ccc(Br)cc2s1` [Compound 4, N-(6-Bromobenzo[d]thiazol-2-yl)acetamide]: in series [2], the IC50 is 112 µM, the inhibition at 25 µg/mL was 39 ± 0.001% and the inhibition at 50 µg/mL came to 89 ± 0.009%.

Regarding `NC(N)=S` [Thiourea, reference compound], the “IC50 (urease inhibition)” value in series [2] (urease, EZ-fit) was found to be 34.65 µg/mL (≈ 455 µM).
